Reference: ChEMBL document CHEMBL4673200, “Hydride-induced Meisenheimer complex formation reflects activity of nitro aromatic anti-tuberculosis compounds” (RSC Med Chem, 2021)
≈ marks a conversion by molar mass, not a printed value. Calls of active or inactive are those of the source. No cut-off for these calls is given here.

Assays:
[1] = system: Vero; assay: Cytotoxicity against African green monkey Vero cells assessed by reduction in cell viability incubated for 72 hrs by resazurin dye fluorescence based assay; settings: Chlorocebus sabaeus
[2] = system: Mycobacterium tuberculosis; assay: Antitubercular activity against Mycobacterium tuberculosis H37Rv ATCC 27294 cultured in 7H12 media assessed as reduction in bacterial growth incubated for 7 days by resazurin dye fluorescence based assay; assay type: functional; settings: H37Rv ATCC 27294, 168 h, time 7 day
[3] = system: Mycobacterium tuberculosis; assay: Antitubercular activity against Mycobacterium tuberculosis H37Rv ATCC 27294 cultured in GAS media assessed as reduction in bacterial growth incubated for 7 days by resazurin dye fluorescence based assay; assay type: functional; settings: H37Rv ATCC 27294, 168 h, time 7 day
[4] = target: T1, Decaprenylphosphoryl-beta-D-ribose oxidase (Mycobacterium tuberculosis (strain ATCC 25618 / H37Rv)) (UniProt P9WJF1); assay: Inhibition of reactivation of Mycobacterium tuberculosis H37Rv DprE1 at 100 times of MIC incubated for 24 hrs by [14C]-acetate radioligand based thin layer chromatography
T1 sequence (whole entry): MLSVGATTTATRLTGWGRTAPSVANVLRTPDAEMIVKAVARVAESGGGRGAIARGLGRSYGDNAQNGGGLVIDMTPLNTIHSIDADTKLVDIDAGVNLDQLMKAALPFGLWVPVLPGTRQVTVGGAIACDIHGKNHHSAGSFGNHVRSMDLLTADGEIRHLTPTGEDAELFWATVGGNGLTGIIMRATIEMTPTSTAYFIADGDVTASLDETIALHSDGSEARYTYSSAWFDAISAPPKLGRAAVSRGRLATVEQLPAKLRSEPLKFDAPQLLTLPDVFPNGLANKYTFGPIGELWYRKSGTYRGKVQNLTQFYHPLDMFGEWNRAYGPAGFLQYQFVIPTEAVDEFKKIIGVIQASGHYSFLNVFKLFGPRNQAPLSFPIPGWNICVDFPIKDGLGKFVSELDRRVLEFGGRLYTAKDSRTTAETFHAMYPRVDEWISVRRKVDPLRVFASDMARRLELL

[5] = system: Mycolicibacterium aurum; assay: Antitubercular activity against Mycobacterium aurum assessed as reduction in bacterial growth incubated for 42 hrs by broth microdilution assay; assay type: functional
[6] = target: T1, Decaprenylphosphoryl-beta-D-ribose oxidase (Mycobacterium tuberculosis (strain ATCC 25618 / H37Rv)); assay: Inhibition of Mycobacterium tuberculosis H37Rv DprE1 at 100 times of MIC incubated for 24 hrs by [14C]-acetate radioligand based thin layer chromatography
[7] = system: Mycolicibacterium vaccae; assay: Antitubercular activity against Mycobacterium vaccae assessed as reduction in bacterial growth incubated for 42 hrs by broth microdilution assay; assay type: functional

Compound | IC50 [1] | MIC [2] | MIC [3] | inhibition [4] | MIC [5] | inhibition [6] | MIC [7]
C[C@H]1COC2(CCN(c3ccc([N+](=O)[O-])cc3C#N)CC2)O1 | > 100 µM | 2.4 µM (≈ 0.728 µg/mL) | 2 µM (≈ 0.607 µg/mL) |  |  |  | 
N#Cc1cc([N+](=O)[O-])ccc1N1CCC(Cc2ccccc2)CC1 | > 100 µM | > 5 µM | 2 µM (≈ 0.643 µg/mL) |  |  |  | 
NC(=O)c1sc2c([N+](=O)[O-])cc(C(F)(F)F)cc2[n+]1[O-] [CYCLAPOLIN 9] |  | 1.2 µM (≈ 0.369 µg/mL) | 2.19 µM (≈ 0.673 µg/mL) |  |  |  | 
N#Cc1cc([N+](=O)[O-])ccc1NCc1cccc(F)c1 | > 100 µM | > 5 µM | 5 µM (≈ 1.36 µg/mL) |  |  |  | 
COc1ccc(CNc2ccc([N+](=O)[O-])cc2C#N)cc1 | > 100 µM | > 5 µM | > 5 µM |  |  |  | 
N#Cc1cc([N+](=O)[O-])ccc1Oc1ccc(Cl)c(Cl)c1 | > 50 µM | > 50 µM | 45 µM (≈ 13.9 µg/mL) |  |  |  | 
O=C(NCc1ccc(N2CCC(c3ccc(OC(F)(F)F)cc3)CC2)cc1)c1nc2cc(C(F)(F)F)cc([N+](=O)[O-])c2s1 | > 100 µM | 0.24 µM (≈ 0.15 µg/mL) | 0.13 µM (≈ 0.0812 µg/mL) | inactive | > 1 µM | Active | 0.125 µM (≈ 0.0781 µg/mL)
COc1ccc(CNC(=O)c2nc3cc(C(F)(F)F)cc([N+](=O)[O-])c3s2)cc1 | > 100 µM | 0.7 µM (≈ 0.288 µg/mL) | 0.14 µM (≈ 0.0576 µg/mL) | inactive | > 1 µM | Active | 0.008 µM (≈ 0.00329 µg/mL)
O=[N+]([O-])c1cn2c(n1)OC[C@@H](OCc1ccc(OC(F)(F)F)cc1)C2 [PRETOMANID] | > 100 µM | 0.08 µM (≈ 0.0287 µg/mL) | 0.2 µM (≈ 0.0719 µg/mL) |  |  |  | 
COc1ccc(CNC(=O)c2sc3c([N+](=O)[O-])cc(C(F)(F)F)cc3[n+]2[O-])cc1 | 76 µM | 0.01 µM (≈ 0.00427 µg/mL) | 0.01 µM (≈ 0.00427 µg/mL) |  | > 1 µM |  | < 0.001 µM
CC(Nc1ccc([N+](=O)[O-])cc1C#N)c1ccc(Cl)cc1 (stereo not given) | 29 µM | > 5 µM | 5 µM (≈ 1.51 µg/mL) |  |  |  | 
N#Cc1cc([N+](=O)[O-])ccc1N1CCN(c2ccc(C(F)(F)F)cc2)CC1 | > 100 µM | > 5 µM | 5 µM (≈ 1.88 µg/mL) |  |  |  | 
CC(C)(C)OC(=O)N1CCC(Oc2ccc(Nc3ccc([N+](=O)[O-])cc3C#N)cc2)CC1 | > 100 µM | > 5 µM | 3 µM (≈ 1.32 µg/mL) |  |  |  | 
N#Cc1cc([N+](=O)[O-])ccc1NCc1ccccn1 | > 100 µM | > 5 µM | > 5 µM |  |  |  | 
CCOC(=O)c1sc2c([N+](=O)[O-])cc(C(F)(F)F)cc2[n+]1[O-] |  | > 5 µM | 4.97 µM (≈ 1.67 µg/mL) |  |  |  | 
O=C(NCc1ccc2c(c1)CCO2)c1sc2c([N+](=O)[O-])cc(C(F)(F)F)cc2[n+]1[O-] | > 100 µM | 0.01 µM (≈ 0.00439 µg/mL) | < 0.002 µM |  | > 1 µM |  | < 0.001 µM
O=c1nc(N2CCN(CC3CCCCC3)CC2)sc2c([N+](=O)[O-])cc(C(F)(F)F)cc12 |  |  |  |  |  | Active | 
C[C@H]1COC2(CCN(C(=O)c3sc4c([N+](=O)[O-])cc(C(F)(F)F)cc4[n+]3[O-])CC2)O1 | 79.6 µM | 0.23 µM (≈ 0.103 µg/mL) | 0.24 µM (≈ 0.107 µg/mL) |  | > 1 µM | Active | 0.015 µM (≈ 0.00671 µg/mL)
N#Cc1cc([N+](=O)[O-])ccc1NC1CC1 | > 100 µM | > 5 µM | > 5 µM |  |  |  | 
CCc1nc2ccc(Cl)cn2c1C(=O)NCc1ccc(N2CCC(c3ccc(OC(F)(F)F)cc3)CC2)cc1 [TELACEBEC] | > 100 µM | 0.03 µM (≈ 0.0167 µg/mL) | 0.007 µM (≈ 0.0039 µg/mL) |  | > 1 µM |  | 0.004 µM (≈ 0.00223 µg/mL)
N#Cc1cc([N+](=O)[O-])ccc1-n1cnc2c(N)ncnc21 | > 100 µM | > 5 µM | > 5 µM |  |  |  | 
N#Cc1cc([N+](=O)[O-])ccc1Nc1ccc(OC2CCNCC2)cc1 | > 100 µM | > 5 µM | > 5 µM |  |  |  | 
O=C(NCc1ccc(N2CCC(c3ccc(OC(F)(F)F)cc3)CC2)cc1)c1sc2c([N+](=O)[O-])cc(C(F)(F)F)cc2[n+]1[O-] | 81 µM | 0.025 µM (≈ 0.016 µg/mL) | 0.07 µM (≈ 0.0448 µg/mL) |  | > 1 µM |  | 0.02 µM (≈ 0.0128 µg/mL)
C[C@H]1COC2(CCN(c3nc(=O)c4cc(C(F)(F)F)cc([N+](=O)[O-])c4s3)CC2)O1 [BTZ-043] | > 100 µM | < 0.004 µM | < 0.004 µM |  | > 1 µM | Active | < 0.001 µM
